What is called IC50 is the concentration that inhibits the measured activity by half. A lower IC50 goes with inhibition by little substance.

Bounds are passed on as bounds.

The target in the first assay is T1, DCN1-like protein 1 (Homo sapiens, UniProt Q96GG9). Nature of the assay: TR-FRET Assay (1 hour). As for the experimental part: (§1) The DCN1 protein was biotinylated (EZ sulfo-NHS-LC-biotin; Thermofisher) for labeling with streptavidin terbium (Tb) cryptate in the reaction. The probe was changed to a non-covalent DCN1 inhibitor labeled with carboxyfluorescein (FAM; Zhou et al., Nat Commun. 2017; 8: 1150. Doi: 10.1038/s41467-017-01243-7). Buffer conditions were modified to enhance protein stability by exchanging Tween20 for TritonX and increasing NaCl to 200 mM. The compounds were screened against 5 nM DCN1 and 20 nM FAM-probe or 0.31 nM DCN1 and 900 nM total probe (100 nM FAM-labeled plus 800 nM unlabeled). The TR-FRET ratio between Tb-DCN1 and the FAM-labeled probe was measured in a 384-well opti-plate (Perkin Elmer) using a plate reader (BMG) at 1 hour after treatment with compound (final DMSO concentration of 0.1%).
T1 sequence (Q96GG9 whole entry): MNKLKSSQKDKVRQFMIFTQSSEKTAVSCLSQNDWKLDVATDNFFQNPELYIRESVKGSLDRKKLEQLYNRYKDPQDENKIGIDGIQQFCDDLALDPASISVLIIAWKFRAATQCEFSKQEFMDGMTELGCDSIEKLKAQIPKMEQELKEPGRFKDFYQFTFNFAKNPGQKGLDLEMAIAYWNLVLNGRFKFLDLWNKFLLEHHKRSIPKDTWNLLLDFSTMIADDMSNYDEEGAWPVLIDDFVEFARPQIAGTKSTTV
For orientation: Time-resolved FRET reads energy transfer from a long-lived donor to a nearby acceptor.
Turning to `CCN1C(=O)[C@@H](NC(=O)c2nccc(C(F)(F)F)n2)[C@H](c2cccc(C(=O)N3C[C@H](F)C[C@H]3C#N)c2)c2cnn(-c3ccccc3)c21` [US12435087, Compound I-350], the IC50 lay in the range of 1000 to 3000 nM.

`C=C(CN1CCOCC1)C(=O)NCc1cccc([C@@H]2c3cnn(-c4ccccc4)c3N(CC)C(=O)[C@H]2NC(=O)c2ccn(C3CC3)n2)c1` [US12435087, Compound I-280] came in with an IC50 below 200 nM.

With `C=C(CN(C)C1COC1)C(=O)NCc1cccc([C@@H]2c3cnn(-c4ccccc4)c3N(CC)C(=O)[C@H]2NC(=O)c2ccn(C(F)(F)F)n2)c1` [US12435087, Compound I-378], the IC50 was below 200 nM.

The molecule `C=CS(=O)(=O)Nc1cccc([C@H]2c3c(C)nn(-c4ccccc4)c3N(CC)C(=O)[C@@H]2NC(=O)c2cccc(C(F)(F)F)c2)c1` (racemic) [US12435087, Compound I-5] displayed an IC50 below 200 nM.

The target of a further assay is T1, DCN1-like protein 1. Put plainly: TR-FRET Assay (24 hour). The method, then:
as §1, with “24 hrs” for “1 hour”
For the molecule `C=C(CN(C)C1COC1)C(=O)N(C)Cc1cccc([C@@H]2c3cnn(-c4ccccc4)c3N(CC)C(=O)[C@H]2NC(=O)c2ccn(C3CC3)n2)c1` [US12435087, Compound I-239], the IC50 is below 200 nM.

In turn, `C=C(CN(C)C1COC1)C(=O)N(C)Cc1cccc([C@@H]2c3cnn(-c4ccccc4)c3N(CC)C(=O)[C@H]2NC(=O)c2nccc(C(F)(F)F)n2)c1` [US12435087, Compound I-254] displayed an IC50 below 200 nM.

With `CCN1C(=O)[C@H](NC(=O)c2cccc(C(F)(F)F)c2)[C@@H](c2cccc(NC(=O)/C=C/CN(C)C)c2)c2c(C)nn(-c3ccccc3)c21` (racemic) [US12435087, Compound I-38], the IC50 is below 200 nM.

`C=C(CN1CC2CC(C1)O2)C(=O)N(C)Cc1cccc([C@@H]2c3cnn(-c4ccccc4)c3N(CC)C(=O)[C@H]2NC(=O)c2ccn(C3CC3)n2)c1` [US12435087, Compound I-258] gave an IC50 below 200 nM.
